Assay results from patent US11109593B2, “Isoxazolin-5-one derivative and herbicide containing same as active ingredient” (HOKKO CHEMICAL INDUSTRY CO., LTD., priority 2017, dated 2021).

Columns and labels:
Format in all cases: in vivo
[1] = test system: Echinochloa crus-galli; assay: Test Example 1: herbicidal effect test by treatment of rice paddy soil (immediately after seeding); conditions: 120 g/10a active ingredient, dry weight vs untreated area, 14 days after treatment; for pest or weed control at 1200 g/ha: in Echinochloa crus-galli, 336 h, read-out: Herbicidal rate (%) Echinochloa crus-galli
Method in brief: (§1)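 Paddy soil in pots with compound fertilizer, puddled; 30 seeds per species sown at 0–1 cm, flooded ~3 cm, greenhouse. Water-diluted emulsions dropped onto water immediately after seeding at 120 g active ingredient per 10 ares, duplicate. Herbicidal rate (%) from plant dry weight versus untreated, 14 days after treatment.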

[2] = test system: Scirpus juncoides; assay: as above; conditions: 120 g/10a active ingredient, dry weight vs untreated area, 14 days after treatment; for pest or weed control at 1200 g/ha: in Schoenoplectiella juncoides, 336 h, read-out: Herbicidal rate (%) Scirpus juncoides
Method in brief: as §1

[3] = test system: broad leaf weeds (Lindernia pyxidaria and Monochoria vaginalis); assay: as above; conditions: 120 g/10a active ingredient, dry weight vs untreated area, 14 days after treatment; for pest or weed control at 1200 g/ha: 336 h
Method in brief: as §1

[4] = test system: Echinochloa crus-galli; assay: Test Example 2: herbicidal effect test by treatment during growing period in paddy rice cultivation (seven days after seeding); conditions: 120 g/10a active ingredient, assessed 14 days after treatment, dry weight vs untreated area; for pest or weed control at 1200 g/ha: Echinochloa crus-galli, 336 h, read-out: herbicidal rate (%) Echinochloa crus-galli
Method in brief: (§2)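 Sow 30 seeds per species (0–1 cm) into puddled, fertilized paddy soil; keep flooded ~3 cm in greenhouse. Day 7 after seeding: drop water-diluted emulsion, 120 g a.i./10 ares. Harvest 14 d post-treatment; compare dry weight with untreated pots (duplicate).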

[5] = test system: Scirpus juncoides; assay: as above; conditions: 120 g/10a active ingredient, assessed 14 days after treatment, dry weight vs untreated area; for pest or weed control at 1200 g/ha: Schoenoplectiella juncoides, 336 h, read-out: herbicidal rate (%) Scirpus juncoides
Method in brief: as §2

[6] = test system: broad leaf weeds (Lindernia pyxidaria and Monochoria vaginalis); assay: as above; conditions: 120 g/10a active ingredient, assessed 14 days after treatment, dry weight vs untreated area; for pest or weed control at 1200 g/ha: 336 h
Method in brief: as §2

[7] = test system: Amaranthus viridis; assay: Test Example 3: herbicidal effect test by treatment of dry field farming soil (one day after seeding); conditions: 120 g/10a active ingredient, evaluated 14 days after treatment; for pest or weed control at 1200 g/ha: Amaranthus viridis, 336 h, read-out: herbicidal rate, Amaranthus viridis
Method in brief: (§3)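 Weeds were seeded into the upper soil layer of alluvial field soil and, one day afterwards, the soil surface was sprayed with water-diluted emulsion delivering 120 g active ingredient per 10 ares. Mean plant dry weight relative to untreated pots after 14 days gave the herbicidal rate, tested in duplicate.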

[8] = test system: Chenopodium album; assay: as above; conditions: 120 g/10a active ingredient, evaluated 14 days after treatment; for pest or weed control at 1200 g/ha: Chenopodium album, 336 h, read-out: herbicidal rate, Chenopodium album
Method in brief: as §3

[9] = test system: Echinochloa crus-galli; assay: as above; conditions: 120 g/10a active ingredient, evaluated 14 days after treatment; for pest or weed control at 1200 g/ha: Echinochloa crus-galli, 336 h, read-out: herbicidal rate, Echinochloa crus-galli
Method in brief: as §3

[10] = test system: southern crabgrass; assay: as above; conditions: 120 g/10a active ingredient, evaluated 14 days after treatment; for pest or weed control at 1200 g/ha: Digitaria ciliaris, 336 h, read-out: herbicidal rate, southern crabgrass
Method in brief: as §3

[11] = test system: Amaranthus viridis; assay: Test Example 4: herbicidal effect test by treatment of leave and stem in dry field farming (seven days after seeding); conditions: 120 g/10a active ingredient, emulsion sprayed seven days after seeding, evaluated 14 days after treatment; for pest or weed control at 1200 g/ha: Amaranthus viridis, 336 h, read-out: herbicidal effect (herbicidal rate), Amaranthus viridis
Method in brief: (§4)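 Duplicate pots were scored 14 days post-spray by dry weight, herbicidal rate = {1 − treated/untreated average dry weight} × 100. The water-diluted emulsion, equivalent to 120 g active ingredient per 10 ares in 100 L, was applied seven days after sowing 20 seeds each into the upper 1 cm of alluvial soil.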

[12] = test system: Chenopodium album; assay: as above; conditions: 120 g/10a active ingredient, emulsion sprayed seven days after seeding, evaluated 14 days after treatment; for pest or weed control at 1200 g/ha: Chenopodium album, 336 h, read-out: herbicidal effect (herbicidal rate), Chenopodium album
Method in brief: as §4

[13] = test system: Echinochloa crus-galli; assay: as above; conditions: 120 g/10a active ingredient, emulsion sprayed seven days after seeding, evaluated 14 days after treatment; for pest or weed control at 1200 g/ha: Echinochloa crus-galli, 336 h, read-out: herbicidal effect (herbicidal rate), Echinochloa crus-galli
Method in brief: as §4

[14] = test system: southern crabgrass; assay: as above; conditions: 120 g/10a active ingredient, emulsion sprayed seven days after seeding, evaluated 14 days after treatment; for pest or weed control at 1200 g/ha: Digitaria ciliaris, 336 h, read-out: herbicidal effect (herbicidal rate), southern crabgrass
Method in brief: as §4

[15] = Monochoria vaginalis, read-out: Herbicidal rate (%) Monochoria vaginalis
[16] = in Lindernia, Lindernia pyxidaria, read-out: Herbicidal rate (%) Lindernia pyxidaria
[17] = Lindernia pyxidaria, read-out: herbicidal rate (%) Lindernia pyxidaria
[18] = Monochoria vaginalis, read-out: herbicidal rate (%) Monochoria vaginalis

CCS(=O)(=O)N(c1ccccc1Cc1c(C)n(CCSC)oc1=O)S(=O)(=O)C(F)(F)F [Compound 1-916]
Herbicidal rate (%) Echinochloa crus-galli [1]: 90% | Herbicidal rate (%) Scirpus juncoides [2]: 90% | Herbicidal rate (%) Lindernia pyxidaria ([3]; Lindernia pyxidaria): 90% | Herbicidal rate (%) Monochoria vaginalis ([3]; Monochoria vaginalis): 90% | Herbicidal rate (%) Echinochloa crus-galli [4]: 90% | Herbicidal rate (%) Scirpus juncoides [5]: 90% | Herbicidal rate (%) Lindernia pyxidaria ([6]; Lindernia pyxidaria): 90% | Herbicidal rate (%) Monochoria vaginalis ([6]; Monochoria vaginalis): 90% | herbicidal rate, Amaranthus viridis [7]: 90% | herbicidal rate, Chenopodium album [8]: 90% | herbicidal rate, Echinochloa crus-galli [9]: 90% | herbicidal rate, southern crabgrass [10]: 90% | herbicidal effect (herbicidal rate), Amaranthus viridis [11]: 40% | herbicidal effect (herbicidal rate), Chenopodium album [12]: 40% | herbicidal effect (herbicidal rate), Echinochloa crus-galli [13]: 90% | herbicidal effect (herbicidal rate), southern crabgrass [14]: 90%

CCS(=O)(=O)N(c1ccccc1Cc1c(C)n(C(C)c2ccccc2)oc1=O)S(=O)(=O)C(F)(F)F (stereo not drawn) [Compound 1-917]
Herbicidal rate (%) Echinochloa crus-galli [1]: 90% | Herbicidal rate (%) Scirpus juncoides [2]: 90% | Herbicidal rate (%) Lindernia pyxidaria ([3]; Lindernia pyxidaria): 90% | Herbicidal rate (%) Monochoria vaginalis ([3]; Monochoria vaginalis): 90% | Herbicidal rate (%) Echinochloa crus-galli [4]: 90% | Herbicidal rate (%) Scirpus juncoides [5]: 90% | Herbicidal rate (%) Lindernia pyxidaria ([6]; Lindernia pyxidaria): 90% | Herbicidal rate (%) Monochoria vaginalis ([6]; Monochoria vaginalis): 90% | herbicidal rate, Amaranthus viridis [7]: 90% | herbicidal rate, Chenopodium album [8]: 90% | herbicidal rate, Echinochloa crus-galli [9]: 90% | herbicidal rate, southern crabgrass [10]: 90% | herbicidal effect (herbicidal rate), Amaranthus viridis [11]: 40% | herbicidal effect (herbicidal rate), Chenopodium album [12]: 40% | herbicidal effect (herbicidal rate), Echinochloa crus-galli [13]: 90% | herbicidal effect (herbicidal rate), southern crabgrass [14]: 90%

Cc1c(Cc2ccccc2N(S(=O)(=O)C(F)(F)F)S(=O)(=O)C(F)(F)F)c(=O)on1C(C)C [Compound 1-962]
Herbicidal rate (%) Echinochloa crus-galli [1]: 100% | Herbicidal rate (%) Scirpus juncoides [2]: 90% | Herbicidal rate (%) Lindernia pyxidaria ([3]; Lindernia pyxidaria): 100% | Herbicidal rate (%) Monochoria vaginalis ([3]; Monochoria vaginalis): 100% | Herbicidal rate (%) Echinochloa crus-galli [4]: 90% | Herbicidal rate (%) Scirpus juncoides [5]: 80% | Herbicidal rate (%) Lindernia pyxidaria ([6]; Lindernia pyxidaria): 60% | Herbicidal rate (%) Monochoria vaginalis ([6]; Monochoria vaginalis): 80% | herbicidal rate, Amaranthus viridis [7]: 80% | herbicidal rate, Chenopodium album [8]: 70% | herbicidal rate, Echinochloa crus-galli [9]: 90% | herbicidal rate, southern crabgrass [10]: 90% | herbicidal effect (herbicidal rate), Amaranthus viridis [11]: 40% | herbicidal effect (herbicidal rate), Chenopodium album [12]: 50% | herbicidal effect (herbicidal rate), Echinochloa crus-galli [13]: 90% | herbicidal effect (herbicidal rate), southern crabgrass [14]: 60%

Cc1c(Cc2ccccc2N(S(=O)(=O)C(F)(F)F)S(=O)(=O)C(F)(F)F)c(=O)on1C(C)(C)C [Compound 1-963, N-[2-[(2-tert-butyl-3-methyl-5-oxo-isoxazol-4-yl)methyl]phenyl]-1,1,1-trifluoro-N-(trifluoromethylsulfonyl)methanesulfonamide]
pest or weed control at 1200 g/ha [1]: 90% | pest or weed control at 1200 g/ha [2]: 90% | pest or weed control at 1200 g/ha [3, 15]: 90% | pest or weed control at 1200 g/ha [3, 16]: 90% | pest or weed control at 1200 g/ha [4]: 90% | pest or weed control at 1200 g/ha [5]: 90% | pest or weed control at 1200 g/ha [6, 17]: 90% | pest or weed control at 1200 g/ha [6, 18]: 90% | pest or weed control at 1200 g/ha [7]: 90% | pest or weed control at 1200 g/ha [8]: 90% | pest or weed control at 1200 g/ha [9]: 90% | pest or weed control at 1200 g/ha [10]: 90% | pest or weed control at 1200 g/ha [11]: 40% | pest or weed control at 1200 g/ha [12]: 40% | pest or weed control at 1200 g/ha [13]: 90% | pest or weed control at 1200 g/ha [14]: 90%

CCC(C)n1oc(=O)c(Cc2ccccc2N(S(=O)(=O)C(F)(F)F)S(=O)(=O)C(F)(F)F)c1C (stereo not drawn) [Compound 1-964, 1,1,1-trifluoro-N-[2-[(3-methyl-5-oxo-2-sec-butyl-isoxazol-4-yl)methyl]phenyl]-N-(trifluoromethylsulfonyl)methanesulfonamide]
pest or weed control at 1200 g/ha [1]: 90% | pest or weed control at 1200 g/ha [2]: 90% | pest or weed control at 1200 g/ha [3, 15]: 100% | pest or weed control at 1200 g/ha [3, 16]: 100% | pest or weed control at 1200 g/ha [4]: 90% | pest or weed control at 1200 g/ha [5]: 90% | pest or weed control at 1200 g/ha [6, 17]: 90% | pest or weed control at 1200 g/ha [6, 18]: 90% | pest or weed control at 1200 g/ha [7]: 90% | pest or weed control at 1200 g/ha [8]: 90% | pest or weed control at 1200 g/ha [9]: 90% | pest or weed control at 1200 g/ha [10]: 90% | pest or weed control at 1200 g/ha [11]: 40% | pest or weed control at 1200 g/ha [12]: 0% | pest or weed control at 1200 g/ha [13]: 90% | pest or weed control at 1200 g/ha [14]: 60%

CCC(CC)n1oc(=O)c(Cc2ccccc2N(S(=O)(=O)C(F)(F)F)S(=O)(=O)C(F)(F)F)c1C [Compound 1-965]
Herbicidal rate (%) Echinochloa crus-galli [1]: 100% | Herbicidal rate (%) Scirpus juncoides [2]: 80% | Herbicidal rate (%) Lindernia pyxidaria ([3]; Lindernia pyxidaria): 80% | Herbicidal rate (%) Monochoria vaginalis ([3]; Monochoria vaginalis): 100% | Herbicidal rate (%) Echinochloa crus-galli [4]: 100% | Herbicidal rate (%) Scirpus juncoides [5]: 80% | Herbicidal rate (%) Lindernia pyxidaria ([6]; Lindernia pyxidaria): 50% | Herbicidal rate (%) Monochoria vaginalis ([6]; Monochoria vaginalis): 80% | herbicidal rate, Amaranthus viridis [7]: 100% | herbicidal rate, Chenopodium album [8]: 100% | herbicidal rate, Echinochloa crus-galli [9]: 100% | herbicidal rate, southern crabgrass [10]: 100% | herbicidal effect (herbicidal rate), Amaranthus viridis [11]: 90% | herbicidal effect (herbicidal rate), Chenopodium album [12]: 40% | herbicidal effect (herbicidal rate), Echinochloa crus-galli [13]: 90% | herbicidal effect (herbicidal rate), southern crabgrass [14]: 90%
